This is an account of results in US9763969B2, “Treatment of inflammatory conditions with hyaluronan disaccharide” (CEDARS-SINAI MEDICAL CENTER, priority 2013, dated 2017).

Series [1] concerns bone marrow derived macrophages. Nature of the series: macrophage stimulation assay, LPS or undigested hyaluronan with hyaluronan disaccharide. In kind it is cell-based, mice. Here is the method: FIG. 6 depicts, in accordance with an embodiment of the invention, hyaluronan disaccharide has an anti-inflammatory property. Hyaluronan disaccharide was co-incubated with LPS or undigested hyaluronan in a macrophage stimulation assay. Hyaluronan disaccharide reduces TNF-α induction by LPS or undigested hyaluronan.
FIG. 11 depicts, in accordance with an embodiment of the invention, hyaluronan dimers are not inert. Bone marrow derived macrophages from WT mice were incubated with LPS and various concentrations of hyaluronan disaccharide. TNF-α at 18 h was measured.

In series [2] the test system is macrophage. Nature of the series: macrophage stimulation assay, Pam3csk4 induced TNF-α secretion. The format is cell-based. To be noted: FIG. 3C; for Pam3csk4 induced TNF-α secretion: TLR2 agonist Pam3csk4. The source says: (§1) FIG. 3 depicts, in accordance with an embodiment of the invention, in vitro anti-inflammatory properties of GBS hyaluronidase. A. Bio-Gel P-4 chromatography of hyaluronidase digestion mixture following digestion with GBS, bovine testis, or Streptomyces hyaluronlyticus hyaluronidase. B. Digestion of HA by GBS hyaluronidase leads to suppressed inflammation. C. HA disaccharide inhibits Pam3csk4 induced TNFα secretion.
(§2) Since bovine hyaluronidase degrades HA to 4-16mers, the inventors asked whether subsequent degradation with GBS hyaluronidase would abrogate induction of TNF-α. Indeed that is what the inventors found (FIG. 3B right). Because the major product of GBS hyaluronidase enzymatic activity is diHA (disaccharide), the inventors also evaluated the direct effect of DiHA on TNF-α secretion induced by a TLR2 agonist Pam3csk4.

In series [3] the test system is TLR9. Kind of series: TLR9 reporter construct in HEK cells. The format is cell-based. To be noted: TLR9 agonist Cpg, FIG. 12B. Here is the method:
(§3) FIG. 12 depicts, in accordance with an embodiment of the invention, HA disaccharide reduces TLR 2 and 4 (A), but not TLR9 (B) signaling. HEK cells were transfected with TLR2, 4, and 9 reporter constructs. The cells were incubated with TLR2 agonist (Pam3), TL4 agonist (LPS), or TLR9 agonist (Cpg) with or without hyaluronan disaccharide. Activation of the reporter genes at 4 h was measured.

Series [4] relates to acute lung injury. Kind of series: LPS acute lung injury, intratracheal. The format is in vivo. To be noted: mice, 5 micrograms LPS intratracheally, 100 micrograms disaccharide, 24 h; FIG. 14. Here is the method: FIG. 14 depicts, in accordance with an embodiment of the invention, HA disaccharide decreases acute lung injury. Mice were injected intratracheally with 5 micrograms of LPS, along with PBS, Hyaluronan disaccharide (100 micrograms) or GBS enzyme (1 mg). At 24 h, the mice were sacrificed and the lungs were analyzed for histology (F&G) and cytokines and chemokines (A-E).

In series [5] the test system is TLR4. Nature of the series: TLR4 reporter construct in HEK cells. In kind it is cell-based. To be noted: TLR4 agonist LPS, FIG. 12A. The method, then: as §3
Series [6] has as its system TLR2. Kind of series: TLR2 reporter construct in HEK cells. In kind it is cell-based. To be noted: TLR2 agonist Pam3, FIG. 12A. The method, then:
as §3

The nature of series [7]: hyaluronidase digestion of HA, fragment sizes (Bio-Gel P-4 chromatography / HPLC). The format is biochemical. To be noted: FIG. 3A.
Excerpt: as §1
(§4) FIG. 8 depicts, in accordance with an embodiment of the invention, GBS hyaluronidase reduces hyaluronan to dimers and dampens inflammation. HPLC profile of hyaluronan fragments generated by bovine hyaluronidase versus Group B streptococcus (GBS) hyaluronidase (A). Stimulatory hyaluronan fragments (4-16mers) were digested with GBS hyaluronidase for 4 or 15 hours (B).
as §2

Series [8] deals with bone marrow derived macrophages. Kind of series: hyaluronan predigested with GBS hyaluronidase, then stimulation of macrophages. In kind it is cell-based.
Excerpt: FIG. 7 depicts, in accordance with an embodiment of the invention, Group B streptococcal hyaluronidase has an anti-inflammatory property. Hyaluronan was predigested with purified GBS hyaluronidase or PBS, and then transferred to a culture of bone marrow derived macrophages.
as §4, §2

Take hyaluronan disaccharide: the “TNF-α at 18 h with LPS and various concentrations of hyaluronan disaccharide” value in series [1] (bone marrow derived macrophages from WT mice, FIG. 11) is recorded as “not inert”. In addition, the “TNF-α induction by LPS” value in series [1] (co-incubated with LPS, FIG. 6) was “reduces”. Further, in series [1] (co-incubated with undigested hyaluronan, FIG. 6), the “TNF-α induction by undigested hyaluronan” value is given as “reduces”. Moreover, the immunostimulatory capacity result in series [2] is “no immunostimulatory capacity”. Moreover, the figures for the “Pam3csk4 induced TNF-α secretion” value in series [2] (listed as HA disaccharide) and in series [2] (listed as diHA) were “inhibits” and “partially inhibited”, respectively. Besides, the “TLR9 signaling (reporter gene activation at 4 h)” value in series [3] is “not”. In series [4], the acute lung injury result was “decreases”. The “TLR4 signaling (reporter gene activation at 4 h)” value in series [5] was “reduces”. Also, in series [6], the “TLR2 signaling (reporter gene activation at 4 h)” value is on record as “reduces”.

B1: GBS hyaluronidase: purified hyaluronidase from Group B Streptococcus (S. agalactiae) that degrades HA to a disaccharide (protein, UniProt Q53591 41-984, looked up)
Hyaluronate lyase: WIDKENTADKSPIIQRTEQGQVSLSSDKGFRGAVTQKVNIDPTKKYEVKFDIETSNKAGQAFLRIMEKKDNNTRLWLSEMTSGTTNKHTLTKIYNPKLNVSEVTLELYYEKGTGSATFDNISMKAKGPKDSEHPQPVTTQIEESVNTALNKNYVFNKADYQYTLTNPSLGKIVGGILYPNATGSTTVKISDKSGKIIKEVPLSVTASTEDKFTKLLDKWNDVTIGNHVYDTNDSNMQKINQKLDETNAKNIKTIKLDSNHTFLWKDLDNLNNSAQLTATYRRLEDLAKQITNPHSTIYKNEKAIRTVKESLAWLHQNFYNVNKDIEGSANWWDFEIGVPRSITATLALMNNYFTDAEIKTYTDPIEHFVPDAGYFRKTLDNPFKALGGNLVDMGRVKIIEGLLRKDNTIIEKTSHSLKNLFTTATKAEGFYADGSYIDHTNVAYTGAYGNVLIDGLTQLLPIIQETDYKISNQELDMVYKWINQSFLPLIVKGELMDMSRGRSISREAASSHAAAVEVLRGFLRLANMSNEERNLDLKSTIKTIITSNKFYNVFNNLKSYSDIANMNKMLNDSTVATKPLKSNLSTFNSMDRLAYYNAEKDFGFALSLHSKRTLNYEGMNDENTRDWYTGDGMFYLYNSDQSHYSNHFWPTVNPYKMAGTTEKDAKREDTTKEFMSKHSKDAKEKTGQVTGTSDFVGSVKLNDHFALAAMDFTNWDRTLTAQKGWVILNDKIVFLGSNIKNTNGIGNVSTTIDQRKDDSKTPYTTYVNGKTIDLKQASSQQFTDTKSVFLESKEPGRNIGYIFFKNSTIDIERKEQTGTWNSINRTSKNTSIVSNPFITISQKHDNKGDSYGYMMVPNIDRTSFDKLANSKEVELLENSSKQQVIYDKNSQTWAVIKHDNQESLINNQFKMNKAGLYLVQKVGNDYQNVYYQPQTMTKTDQLAI
Consider B1, for which the “HA degradation product (fragment size)” value in series [7] was “a single product—a disaccharide”. Moreover, the “TNF-α stimulation by hyaluronan” value in series [8] (hyaluronan predigested with purified GBS hyaluronidase or PBS, FIG. 7) is “significantly reduces”. Also, in series [8] (stimulatory hyaluronan fragments (4-16mers) digested for 4 or 15 hours, FIG. 8B), the cytokine production entry is listed as “reduces cytokine production”. In addition, the “induction of TNF-α by HA degraded with bovine hyaluronidase” value in series [8] (subsequent degradation with GBS hyaluronidase, FIG. 3B right) is “abrogate”.
